Values quoted from earlier work as cited in patent publication US10281467B2, “Screening assays to identify compounds which modulate T1R associated taste modalities which eliminate false positives” (SENOMYX, INC., priority 2013, dated 2019).

System: sweet taste
Conditions: more potent/sweet than sucrose

## C=C(C)[C@@H]1CC=C(/C=N/O)CC1 [Perillartine]
  potency/sweetness relative to sucrose: approximately 370 times
